# Measurements from PubChem BioAssay (NCI).
#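 All cell lines were grown in 96-well plates and treated with compound for 48 hours. Abbreviation: GI50, concentration required for 50% inhibition of growth. TGI denotes the concentration required for complete inhibition of growth.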
# Legend:
# Test in all cases: NCI tumour cell line growth inhibition, 48 h
# CCRF-CEM leukemia = system: CCRF-CEM leukemia
# SN12C renal = system: SN12C renal
# TK-10 renal = system: TK-10 renal
# MDA-MB-435 = system: MDA-MB-435
# UACC-257 melanoma = system: UACC-257 melanoma
# HT29 colon = system: HT29 colon
# MALME-3M melanoma = system: MALME-3M melanoma
# RXF 393 renal = system: RXF 393 renal
# SK-MEL-5 melanoma = system: SK-MEL-5 melanoma
# A498 renal = system: A498 renal
# OVCAR-4 ovarian = system: OVCAR-4 ovarian
# 786-0 renal = system: 786-0 renal
# MDA-MB-468 breast = system: MDA-MB-468 breast
# COLO 205 colon = system: COLO 205 colon
# SF-268 CNS = system: SF-268 CNS
# MDA-MB-231 breast = system: MDA-MB-231 breast
# IGROV1 ovarian = system: IGROV1 ovarian
# NCI-H226 lung = system: NCI-H226 lung
# OVCAR-5 ovarian = system: OVCAR-5 ovarian
# RPMI-8226 leukemia = system: RPMI-8226 leukemia
# UACC-62 melanoma = system: UACC-62 melanoma
# OVCAR-8 ovarian = system: OVCAR-8 ovarian
# CAKI-1 renal = system: CAKI-1 renal
# SR leukemia = system: SR leukemia
# SK-MEL-28 melanoma = system: SK-MEL-28 melanoma
# NCI-H460 lung = system: NCI-H460 lung
smiles,measurement,setting,value
COc1ccc2[nH]cc(-c3cc4nc(-c5cn(C)c6ncc(Br)cc56)cc(N)n4n3)c2c1,GI50,CCRF-CEM leukemia,2850 nM
same,TGI,CCRF-CEM leukemia,> 100000 nM
same,GI50,SN12C renal,1700 nM
same,TGI,SN12C renal,3300 nM
same,GI50,TK-10 renal,2480 nM
same,TGI,TK-10 renal,6390 nM
same,GI50,MDA-MB-435,1680 nM
same,TGI,MDA-MB-435,3210 nM
same,GI50,UACC-257 melanoma,1720 nM
same,TGI,UACC-257 melanoma,3480 nM
same,GI50,HT29 colon,1960 nM
same,TGI,HT29 colon,3950 nM
same,GI50,MALME-3M melanoma,1680 nM
same,TGI,MALME-3M melanoma,3170 nM
same,GI50,RXF 393 renal,1730 nM
same,TGI,RXF 393 renal,3230 nM
same,GI50,SK-MEL-5 melanoma,1780 nM
same,TGI,SK-MEL-5 melanoma,3340 nM
same,GI50,A498 renal,2220 nM
same,TGI,A498 renal,7010 nM
same,GI50,OVCAR-4 ovarian,1840 nM
same,TGI,OVCAR-4 ovarian,3790 nM
same,GI50,786-0 renal,1770 nM
same,TGI,786-0 renal,3290 nM
same,GI50,MDA-MB-468 breast,1420 nM
same,TGI,MDA-MB-468 breast,2860 nM
same,GI50,COLO 205 colon,1820 nM
same,TGI,COLO 205 colon,3450 nM
same,GI50,SF-268 CNS,1840 nM
same,TGI,SF-268 CNS,4330 nM
same,GI50,MDA-MB-231 breast,1650 nM
same,TGI,MDA-MB-231 breast,3360 nM
same,GI50,IGROV1 ovarian,1650 nM
same,TGI,IGROV1 ovarian,3430 nM
same,GI50,NCI-H226 lung,1950 nM
same,TGI,NCI-H226 lung,3970 nM
same,GI50,OVCAR-5 ovarian,1590 nM
same,TGI,OVCAR-5 ovarian,3440 nM
same,GI50,RPMI-8226 leukemia,2910 nM
same,TGI,RPMI-8226 leukemia,> 100000 nM
same,GI50,UACC-62 melanoma,1550 nM
same,TGI,UACC-62 melanoma,3040 nM
same,GI50,OVCAR-8 ovarian,1860 nM
same,TGI,OVCAR-8 ovarian,3660 nM
same,GI50,CAKI-1 renal,1410 nM
same,TGI,CAKI-1 renal,3540 nM
same,GI50,SR leukemia,2740 nM
same,TGI,SR leukemia,> 100000 nM
same,GI50,SK-MEL-28 melanoma,1670 nM
same,TGI,SK-MEL-28 melanoma,3080 nM
same,GI50,NCI-H460 lung,1800 nM
same,TGI,NCI-H460 lung,3470 nM
